Test results as given in PubChem BioAssay (NCI).
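These data come from cells grown in 96-well plates and exposed to compound for 48 hours at five concentrations. GI50: concentration for 50% inhibition of growth. The concentration for full growth arrest is given as TGI.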

What was measured:
Test in all cases: NCI tumour cell line growth inhibition, 48 h
RXF 393 renal = tested on: RXF 393 renal
CCRF-CEM leukemia = tested on: CCRF-CEM leukemia
HCC-2998 colon = tested on: HCC-2998 colon
HT29 colon = tested on: HT29 colon
MDA-MB-231 breast = tested on: MDA-MB-231 breast
MOLT-4 leukemia = tested on: MOLT-4 leukemia
OVCAR-8 ovarian = tested on: OVCAR-8 ovarian
HL-60(TB) leukemia = tested on: HL-60(TB) leukemia
SK-MEL-2 melanoma = tested on: SK-MEL-2 melanoma
UACC-257 melanoma = tested on: UACC-257 melanoma
SK-OV-3 ovarian = tested on: SK-OV-3 ovarian
HOP-92 NSCLC = tested on: HOP-92 NSCLC
HCT-116 colon = tested on: HCT-116 colon
CAKI-1 renal = tested on: CAKI-1 renal
SF-295 CNS = tested on: SF-295 CNS
HS 578T breast = tested on: HS 578T breast
SK-MEL-5 melanoma = tested on: SK-MEL-5 melanoma
OVCAR-3 ovarian = tested on: OVCAR-3 ovarian
MCF7 breast = tested on: MCF7 breast
SR leukemia = tested on: SR leukemia
COLO 205 colon = tested on: COLO 205 colon
MDA-MB-468 breast = tested on: MDA-MB-468 breast
786-0 renal = tested on: 786-0 renal
PC-3 prostate = tested on: PC-3 prostate
A498 renal = tested on: A498 renal
TK-10 renal = tested on: TK-10 renal
NCI-H23 lung = tested on: NCI-H23 lung
LOX IMVI melanoma = tested on: LOX IMVI melanoma
EKVX NSCLC = tested on: EKVX NSCLC
M14 melanoma = tested on: M14 melanoma
NCI-H460 lung = tested on: NCI-H460 lung
SNB-75 CNS = tested on: SNB-75 CNS
K-562 leukemia = tested on: K-562 leukemia
NCI-H522 lung = tested on: NCI-H522 lung
BT-549 breast = tested on: BT-549 breast
T-47D breast = tested on: T-47D breast
UO-31 renal = tested on: UO-31 renal
MDA-MB-435 = tested on: MDA-MB-435
SW-620 colon = tested on: SW-620 colon
IGROV1 ovarian = tested on: IGROV1 ovarian
U251 CNS = tested on: U251 CNS
RPMI-8226 leukemia = tested on: RPMI-8226 leukemia
HOP-62 NSCLC = tested on: HOP-62 NSCLC
SF-539 CNS = tested on: SF-539 CNS
SF-268 CNS = tested on: SF-268 CNS
OVCAR-4 ovarian = tested on: OVCAR-4 ovarian
MALME-3M melanoma = tested on: MALME-3M melanoma
OVCAR-5 ovarian = tested on: OVCAR-5 ovarian
SK-MEL-28 melanoma = tested on: SK-MEL-28 melanoma
NCI-H226 lung = tested on: NCI-H226 lung
KM12 colon = tested on: KM12 colon
NCI/ADR-RES ovarian = tested on: NCI/ADR-RES ovarian
DU-145 prostate = tested on: DU-145 prostate
SN12C renal = tested on: SN12C renal
SNB-19 CNS = tested on: SNB-19 CNS
UACC-62 melanoma = tested on: UACC-62 melanoma
A549 NSCLC = tested on: A549 NSCLC
HCT-15 colon = tested on: HCT-15 colon
ACHN renal = tested on: ACHN renal

SMILES: O=C(CNc1nc(-c2ccccc2)cs1)Nc1cccc([N+](=O)[O-])c1
- GI50 (RXF 393 renal): 128 nM
- TGI (RXF 393 renal): 269 nM
- GI50 (CCRF-CEM leukemia): 58.7 nM
- TGI (CCRF-CEM leukemia): 4520 nM
- GI50 (HCC-2998 colon): 175 nM
- TGI (HCC-2998 colon): 321 nM
- GI50 (HT29 colon): 142 nM
- TGI (HT29 colon): 357 nM
- GI50 (MDA-MB-231 breast): 196 nM
- TGI (MDA-MB-231 breast): 375 nM
- GI50 (MOLT-4 leukemia): 117 nM
- TGI (MOLT-4 leukemia): 2530 nM
- GI50 (OVCAR-8 ovarian): 222 nM
- TGI (OVCAR-8 ovarian): 568 nM
- GI50 (HL-60(TB) leukemia): 198 nM
- TGI (HL-60(TB) leukemia): 937 nM
- GI50 (SK-MEL-2 melanoma): 177 nM
- TGI (SK-MEL-2 melanoma): 323 nM
- GI50 (UACC-257 melanoma): 256 nM
- TGI (UACC-257 melanoma): 826 nM
- GI50 (SK-OV-3 ovarian): 128 nM
- TGI (SK-OV-3 ovarian): 335 nM
- GI50 (HOP-92 NSCLC): 243 nM
- TGI (HOP-92 NSCLC): 660 nM
- GI50 (HCT-116 colon): 188 nM
- TGI (HCT-116 colon): 590 nM
- GI50 (CAKI-1 renal): 182 nM
- TGI (CAKI-1 renal): 558 nM
- GI50 (SF-295 CNS): 223 nM
- TGI (SF-295 CNS): 519 nM
- GI50 (HS 578T breast): 230 nM
- TGI (HS 578T breast): 739 nM
- GI50 (SK-MEL-5 melanoma): 166 nM
- TGI (SK-MEL-5 melanoma): 302 nM
- GI50 (OVCAR-3 ovarian): 251 nM
- TGI (OVCAR-3 ovarian): 708 nM
- GI50 (MCF7 breast): 166 nM
- TGI (MCF7 breast): 551 nM
- GI50 (SR leukemia): 175 nM
- TGI (SR leukemia): > 34900 nM
- GI50 (COLO 205 colon): 193 nM
- TGI (COLO 205 colon): 367 nM
- GI50 (MDA-MB-468 breast): 185 nM
- TGI (MDA-MB-468 breast): 358 nM
- GI50 (786-0 renal): 253 nM
- TGI (786-0 renal): 663 nM
- GI50 (PC-3 prostate): 217 nM
- TGI (PC-3 prostate): 1860 nM
- GI50 (A498 renal): 223 nM
- TGI (A498 renal): 555 nM
- GI50 (TK-10 renal): 197 nM
- TGI (TK-10 renal): 660 nM
- GI50 (NCI-H23 lung): 72.4 nM
- TGI (NCI-H23 lung): 202 nM
- GI50 (LOX IMVI melanoma): 106 nM
- TGI (LOX IMVI melanoma): 238 nM
- GI50 (EKVX NSCLC): 231 nM
- TGI (EKVX NSCLC): 580 nM
- GI50 (M14 melanoma): 177 nM
- TGI (M14 melanoma): 347 nM
- GI50 (NCI-H460 lung): 136 nM
- TGI (NCI-H460 lung): 616 nM
- GI50 (SNB-75 CNS): 136 nM
- TGI (SNB-75 CNS): 320 nM
- GI50 (K-562 leukemia): 223 nM
- TGI (K-562 leukemia): 11200 nM
- GI50 (NCI-H522 lung): 129 nM
- TGI (NCI-H522 lung): 297 nM
- GI50 (BT-549 breast): 167 nM
- TGI (BT-549 breast): 347 nM
- GI50 (T-47D breast): 218 nM
- TGI (T-47D breast): 632 nM
- GI50 (UO-31 renal): 169 nM
- TGI (UO-31 renal): 444 nM
- GI50 (MDA-MB-435): 170 nM
- TGI (MDA-MB-435): 319 nM
- GI50 (SW-620 colon): 66.3 nM
- TGI (SW-620 colon): 914 nM
- GI50 (IGROV1 ovarian): 108 nM
- TGI (IGROV1 ovarian): 459 nM
- GI50 (U251 CNS): 262 nM
- TGI (U251 CNS): 927 nM
- GI50 (RPMI-8226 leukemia): 291 nM
- TGI (RPMI-8226 leukemia): 1230 nM
- GI50 (HOP-62 NSCLC): 216 nM
- TGI (HOP-62 NSCLC): 469 nM
- GI50 (SF-539 CNS): 180 nM
- TGI (SF-539 CNS): 358 nM
- GI50 (SF-268 CNS): 257 nM
- TGI (SF-268 CNS): 725 nM
- GI50 (OVCAR-4 ovarian): 223 nM
- TGI (OVCAR-4 ovarian): 511 nM
- GI50 (MALME-3M melanoma): 172 nM
- TGI (MALME-3M melanoma): 314 nM
- GI50 (OVCAR-5 ovarian): 203 nM
- TGI (OVCAR-5 ovarian): 413 nM
- GI50 (SK-MEL-28 melanoma): 199 nM
- TGI (SK-MEL-28 melanoma): 379 nM
- GI50 (NCI-H226 lung): 188 nM
- TGI (NCI-H226 lung): 444 nM
- GI50 (KM12 colon): 246 nM
- TGI (KM12 colon): 693 nM
- GI50 (NCI/ADR-RES ovarian): 175 nM
- TGI (NCI/ADR-RES ovarian): 381 nM
- GI50 (DU-145 prostate): 264 nM
- TGI (DU-145 prostate): 730 nM
- GI50 (SN12C renal): 184 nM
- TGI (SN12C renal): 469 nM
- GI50 (SNB-19 CNS): 206 nM
- TGI (SNB-19 CNS): 500 nM
- GI50 (UACC-62 melanoma): 119 nM
- TGI (UACC-62 melanoma): 245 nM
- GI50 (A549 NSCLC): 323 nM
- TGI (A549 NSCLC): 1390 nM
- GI50 (HCT-15 colon): 93 nM
- TGI (HCT-15 colon): 413 nM
- GI50 (ACHN renal): 200 nM
- TGI (ACHN renal): 436 nM
